Measurements taken from US20250268921A1, “OPTHALMIC FORMULATIONS AND USES THEREOF” (TelomEYE Pharmaceutical Corporation, priority 2018, published 2025).
“Also recorded” adds a separate entry of the source.

Columns and labels:
[1] = test system: human corneal endothelial cells; assay: Morphologic evaluation and cell viability, cornea endothelial cells; type: cell-based
Experimental: In the morphologic evaluation, the cells at different time periods (1 h, 4 h, 24 h) were observed following different concentrations of drug administration.

[2] = test system: human corneal epithelial cells; assay: Morphologic evaluation and cell viability, cornea epithelial cells; type: cell-based
telomerase = target: T1, telomerase (Homo sapiens, UniProt O14746); assay: Telomerase activity of cornea endothelial and epithelial cells; type: cell-based
T1 construct: telomerase activity was evaluated in cornea endothelial cell HCEC-B4G12; endogenous in cells; host or cells: HCEC-B4G12 (DSMZ ACC 647)
T1 sequence (O14746 whole entry): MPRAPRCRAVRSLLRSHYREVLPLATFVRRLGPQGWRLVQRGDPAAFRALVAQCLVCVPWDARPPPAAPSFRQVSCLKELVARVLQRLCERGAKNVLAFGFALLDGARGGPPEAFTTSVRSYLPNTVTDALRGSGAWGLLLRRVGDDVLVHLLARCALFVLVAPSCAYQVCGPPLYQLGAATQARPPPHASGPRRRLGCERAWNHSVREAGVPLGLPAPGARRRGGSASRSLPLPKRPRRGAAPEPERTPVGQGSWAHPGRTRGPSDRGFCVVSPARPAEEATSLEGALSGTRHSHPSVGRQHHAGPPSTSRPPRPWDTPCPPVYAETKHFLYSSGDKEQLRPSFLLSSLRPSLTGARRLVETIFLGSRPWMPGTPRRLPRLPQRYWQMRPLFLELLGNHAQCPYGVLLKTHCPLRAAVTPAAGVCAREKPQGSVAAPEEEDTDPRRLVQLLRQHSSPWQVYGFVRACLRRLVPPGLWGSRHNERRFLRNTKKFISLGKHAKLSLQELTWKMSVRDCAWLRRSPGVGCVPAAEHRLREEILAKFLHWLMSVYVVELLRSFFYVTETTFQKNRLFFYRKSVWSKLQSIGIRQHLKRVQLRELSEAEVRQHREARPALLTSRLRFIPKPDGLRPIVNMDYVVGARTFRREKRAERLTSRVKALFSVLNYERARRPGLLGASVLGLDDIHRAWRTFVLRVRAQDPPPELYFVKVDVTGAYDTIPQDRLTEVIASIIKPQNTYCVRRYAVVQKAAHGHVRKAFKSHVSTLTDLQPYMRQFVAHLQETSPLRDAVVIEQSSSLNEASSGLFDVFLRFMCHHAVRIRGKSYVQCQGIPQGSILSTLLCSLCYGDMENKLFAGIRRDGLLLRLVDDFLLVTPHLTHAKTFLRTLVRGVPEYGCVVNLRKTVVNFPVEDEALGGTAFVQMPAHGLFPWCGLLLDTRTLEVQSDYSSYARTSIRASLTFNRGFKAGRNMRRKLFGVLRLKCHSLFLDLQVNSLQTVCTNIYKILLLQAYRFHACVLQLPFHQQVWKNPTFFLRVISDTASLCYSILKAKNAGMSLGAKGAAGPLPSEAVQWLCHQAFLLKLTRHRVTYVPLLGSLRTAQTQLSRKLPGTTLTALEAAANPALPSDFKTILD

[3] = test system: 3D organotypic corneal barrier; assay: 3D organotypic corneal barrier passage (LC-MS/MS); type: in vitro ADME; details: repeated drug administration
[4] = Rabbit ocular pharmacokinetic model; type: in vivo
Experimental: At the end of the fifth day, blood, tear, cornea, anterior chamber fluid, iris and lens tissues were collected at 30, 60, 120, 240 and 480 minutes following the last administration of 4 μg/50 μl. […] According to the results of the drug analysis at the 30th minute, the highest drug concentrations of 215.56 ng in the corneal tissue, 4 ng in the anterior chamber and 14.12 ng in the iris were detected individually, proving that the drug passes into the corneal tissue after application to the corneal surface and reaches the intraocular tissues.

cornea endothelial cells = assay: Specular microscopy cornea endothelial cell count, TAED017 eye drops 6 months; type: in vivo, rabbit; details: for cell count, treatment vs control: 2nd and 5th months
Excerpt: 16-month-old male New Zealand rabbits were used in the study. […] When determining the starting age of rabbits and the duration of eye drop application (6 months), 16 months was chosen to correspond to adult human age, and the study period of 6 months was modeled as the period in which New Zealand rabbits aged 7.91 years (22.75 days for adult New Zealand rabbits, corresponding to 1 year for human age).
In FIGS. 12-15, data are shown as mean±standard error. The statistical evaluations are based on CD (cornea endothelia cell density) values. All CD values were corrected to the baseline measurement (month 0) of the respective rabbit and this correction was made as a percentage [(CD value/CD baseline value)*100]. GraphPad Prism 8.0.2 software was used for all statistical analyses and visualizations. The treatment of the rabbits at the respective dose was compared between the left (TAED017 treatment) and right (non-treated control) eye, both temporally and time and side dependent. For all analyses, “2-way ANOVA test for repeated measures” was used. For data sets with missing data, this analysis was set as “mixed-effect analysis” by the program. “Tukey” and “sidak” tests were used for posthoc analyses. The p values for these tests are adjusted p values.

[5] = test system: telomerase reverse transcriptase (TERT); assay: TERT immunohistochemistry of eye tissues; type: in vivo, rabbit
Excerpt: This was characterized by weak telomerase activity in the endothelial layer with an expression of limited number of endothelial cells.

[6] = test system: telomere length in Corneal Endothelial Cells (CEC); assay: Telomere length of corneal endothelial cells, treated versus untreated eyes; type: in vivo, rabbit; details: six months treatment
Experimental: IG. 18 illustrates a graph showing percentage of telomere length increases in treated eyes (L) versus control (untreated eyes, R), with increasing dosages of telomerase activator. […] (Cy3=Fluorescence signal of telomere probe, Hoescht=fluorescence of the nuclei, Average R=Average of the control eye).
To determine the mechanism by which treatment with TAED017 prevents Corneal Endothelial Cell (CEC) attrition, telomere lengths from CECs of both treated and untreated eyes were measured and compared.
We then evaluated whether the observed effect of telomere lengthening in CECs also occurred in other ocular tissues. Rabbit eyes were treated for six months with TAED017, (one eye of each rabbit was treated while the other eye remained untreated, as a control group).

[7] = cornea endothelial and epithelial cells, 48 hours

**Q.** Which results are given for CC(C)(O)[C@@H]1CC[C@](C)([C@H]2[C@@H](O)C[C@@]3(C)[C@@H]4C[C@H](O)[C@H]5C(C)(C)[C@@H](O)CC[C@@]56C[C@@]46CC[C@]23C)O1 [TAED017, Cycloastragenol]?
**A.** morphologic change ([1]; 40 μM and 80 μM, up to 24 hours): no significant changes; apoptotic cells in 20× microscope field ([1]; 320 μM, 640 μM and 960 μM, after 1 h and 4 h): 1-5; morphologic change ([1]; 320 μM, 640 μM and 960 μM, as early as 5 minutes): cell-cell connections were disrupted and the cells became round; IC50 ([1]; cornea endothelial cells, read-out: IC50 dose (cell viability assays)): 220 µM; doses that appear safe ([1]; corneal endothelial cells, in vitro): ≤ 80 µM; cell damage ([1]; doses above 80 μM, prolonged drug exposure): significant apoptosis and lysis; apoptosis in HCECs ([1]; high concentrations (e.g. 160 μM and 320 μM)): significantly induces apoptosis; concentration of first degenerative changes ([2]; after 24 hours): 320 µM; IC50 ([2]; cornea epithelial cells, read-out: IC50 dose (cell viability assays)): 740 µM; concentrations without morphological degenerative changes (safe) ([2]; epithelial cells): ≤ 160 μM; concentrations at which telomerase activity reached its highest level (telomerase; [7]): 20 μM, 40 μM and 100 μM; starting concentration of telomerase activity increase (telomerase; [7]): 2 µM; telomerase activity after 100 μM concentration (telomerase; [7]): no higher telomerase activity; TAED017 activity, epithelial versus endothelial cells (telomerase; human corneal epithelial cells vs HCEC B4-G12): higher in corneal epithelial cells; starting concentration of telomerase activity increase (telomerase; printed in brackets after 2 μM): 100 ng/mL; amount crossing the corneal barrier, highest ([3]; 48th hour): 1.35%; amount crossing the corneal barrier, highest ([3]; 72nd hour): 1.89%; Tmax, all eye tissues ([4]; 4 μg/50 μl twice a day 5 days, after last administration): 30 min; drug concentration in tears ([4]; 30 and 60 minutes): ≤ 3 ng; highest drug concentration, anterior chamber ([4]; 30th minute, 4 μg/50 μl): 4 ng; highest drug concentration, corneal tissue ([4]; 30th minute, 4 μg/50 μl): 215.56 ng; highest drug concentration, iris ([4]; 30th minute, 4 μg/50 μl): 14.12 ng; highest level of drug absorbed to the corneal surface ([4]; proportion of applied drug): 5.39%; proportion of the drug that passed into the eye, iris tissue ([4]; proportion of applied drug): 0.35%; cell count, difference between months in the treated eye (cornea endothelial cells; 4 μg/50 μl): no significant difference between the times; cell count, overall comparison treated left vs untreated right eye (cornea endothelial cells; 4 μg/50 μl twice a day, two way ANOVA): no statistically significant difference; cell count, treatment vs control (cornea endothelial cells; 4 μg/50 μl): no statistically significant difference; cell count, treatment vs control (cornea endothelial cells; 8 μg/50 μl): no difference; cell count, overall comparison treated left vs untreated right eye (cornea endothelial cells; 8 μg/50 μl, mixed-effects analysis): statistically significant difference; cell count, difference between months in the treated eye (cornea endothelial cells; 12 μg/50 μl): statistically significant difference between the 2nd and 6th month; cell count, treatment vs control (cornea endothelial cells; 12 μg/50 μl): no difference; cell count, overall comparison treated left vs untreated right eye (cornea endothelial cells; 12 μg/50 μl, mixed-effects analysis): statistically significant difference; TERT immunoreactivity in cornea and iris, rank among dose groups ([5]; 80 μg/ml): lowest Tert immunoreactivity; also recorded: lowest levels; TERT immunostaining in the ciliary processes of iris tissue ([5]; 80 μg/ml): Prominent and dense tert antigen immunostaining; TERT staining in corneal endothelial cells ([5]; 160 μg and 240 μg/ml): continuous layer staining; TERT immunostaining in the ciliar processes ([5]; 160 μg/ml and 240 μg/ml): diffuse and very intense immunopositivity; TERT immunoreactivity in cornea and iris, rank among dose groups ([5]; 240 μg/ml): highest reactivity; also recorded: highest levels; TERT expression in cornea and iris, treated left eyes vs untreated ([5]; 80-240 μg/ml eye drops): significantly higher expression; also recorded: significantly elevated; TERT activity in the iris and choroidea vs untreated ([5]; treatment groups): significantly higher; CEC telomere length, treated vs untreated eyes [6]: significant increase; also recorded: longer than those from untreated eyes
